Source: patent US9901538B2, “Personal care composition containing yeast/polyphenol ferment extract” (priority 2008, dated 2018)

Test system: Pichia pastoris
Test: 2-Dimensional gel electrophoresis of yeast protein expression
Type: cell-based
Settings: 2D gel, 626 spots analyzed, FIG. 2 and 3
Protocol: To identify the metabolic changes in the yeast because of the polyphenol feed-strategy, 2-Dimensional gel electrophoreses and gene microarray analysis was conducted on the control, (i.e., a yeast extract without resveratrol growth factor), and a yeast-resveratrol ferment extract produced by the process of the present invention. The first dimension IEF focuses on separation of the proteins based on their isoelectric points and was conducted using the EttanIPGphor system with a manifold for protein loading. The 2nd dimension SDS-PAGE is an electrophoretic method for separating polypeptides according to their molecular weights using the DALT VI Electrophoresis Unit (GE-Amersham, Piscataway N.J.) (2, 6). To remove interfering substances and impurities, the yeast cell extracts were purified using the 2D Clean-up kit provided by GE Amersham. Each purified yeast sample was rehydrated overnight with Thiourea rehydration solution (7M Urea and 2M Thiourea, 2% Chaps, 0.5% Pharmalyte). The rehydrated samples were loaded onto the 1st dimension IEF. […]
FIG. 3 illustrates the laser densitometer comparison of the control versus the yeast/resveratrol of the invention. Reference spot numbering, pI, and MW are given for changing polypeptide spots and analyzed in the samples. […] A total of 626 spots were analyzed.

Oc1ccc(/C=C/c2cc(O)cc(O)c2)cc1 [resveratrol, 3,4,5-transhydroxystilbene]
proteomic changes of the yeast versus untreated control: significant proteomic changes
